{"source": "ChEMBL document CHEMBL1201862", "about": "“PubChem BioAssay data set” (2004)", "key": {"[1]": {"system": "Streptococcus sp. 'group A'", "assay": "growth inhibition of control SK(-) GAS strain, dose response, counter-screen for streptokinase expression inhibitor project, luminescence, kanamycin, BacTiterGlo, confirmation (AID 1900)", "format": "functional, organism-based"}, "[2]": {"biological_target": "Disintegrin and metalloproteinase domain-containing protein 17 (Homo sapiens, UniProt P78536)", "assay": "ADAM17 protease inhibitors, dose response, counter-screen for ADAM10 exosite inhibitor project, biochemical, quenched FRET substrate (AID 743253)"}, "Streptococcus [3]": {"system": "Streptococcus", "assay": "Group A Streptococcus viability loss, dose response, counter-screen for streptokinase expression inhibitor project, luminescence, BacTiterGlo (AID 1915);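 also: potency for reduction of bacterial viability or growth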", "format": "functional, organism-based"}, "Streptococcus [4]": {"system": "Streptococcus", "assay": "Luminescence Microorganism-Based Dose Response Follow up to Identify Compounds Cytotoxic to Streptococcus. [Related pubchem assays: 1677 (Project Summary), 1915, 1914, 1902 (Retest at Dose), 1900 (Counter Screen), 1662 (Primary HTS)]", "format": "functional, organism-based"}, "Streptokinase A": {"biological_target": "T1, Streptokinase A (Streptococcus pyogenes serotype M1, UniProt P10520)", "T1 sequence (P10520 whole entry)": "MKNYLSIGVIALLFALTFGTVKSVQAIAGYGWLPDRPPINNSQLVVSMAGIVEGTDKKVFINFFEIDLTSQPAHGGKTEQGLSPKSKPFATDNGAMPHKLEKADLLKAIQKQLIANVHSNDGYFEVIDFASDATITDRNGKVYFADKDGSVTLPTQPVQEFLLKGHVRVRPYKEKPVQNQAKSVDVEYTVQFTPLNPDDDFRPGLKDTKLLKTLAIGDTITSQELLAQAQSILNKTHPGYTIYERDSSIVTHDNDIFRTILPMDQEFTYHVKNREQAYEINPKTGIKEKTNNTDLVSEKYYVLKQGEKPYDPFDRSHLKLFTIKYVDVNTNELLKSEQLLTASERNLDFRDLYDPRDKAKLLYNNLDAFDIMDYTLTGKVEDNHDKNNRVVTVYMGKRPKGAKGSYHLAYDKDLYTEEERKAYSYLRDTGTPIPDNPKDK", "assay": "S. pyogenes streptokinase expression inhibitors, potency, dose response, plasminogen activation absorbance, OD405 (AID 1914);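 also: secreted streptokinase activity via plasminogen activation per viability signal from cell pellet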", "format": "functional, Streptococcus pyogenes M1 GAS"}, "[5]": {"biological_target": "Luciferin 4-monooxygenase (Photinus pyralis, UniProt P08659)", "sequence (P08659 whole entry)": "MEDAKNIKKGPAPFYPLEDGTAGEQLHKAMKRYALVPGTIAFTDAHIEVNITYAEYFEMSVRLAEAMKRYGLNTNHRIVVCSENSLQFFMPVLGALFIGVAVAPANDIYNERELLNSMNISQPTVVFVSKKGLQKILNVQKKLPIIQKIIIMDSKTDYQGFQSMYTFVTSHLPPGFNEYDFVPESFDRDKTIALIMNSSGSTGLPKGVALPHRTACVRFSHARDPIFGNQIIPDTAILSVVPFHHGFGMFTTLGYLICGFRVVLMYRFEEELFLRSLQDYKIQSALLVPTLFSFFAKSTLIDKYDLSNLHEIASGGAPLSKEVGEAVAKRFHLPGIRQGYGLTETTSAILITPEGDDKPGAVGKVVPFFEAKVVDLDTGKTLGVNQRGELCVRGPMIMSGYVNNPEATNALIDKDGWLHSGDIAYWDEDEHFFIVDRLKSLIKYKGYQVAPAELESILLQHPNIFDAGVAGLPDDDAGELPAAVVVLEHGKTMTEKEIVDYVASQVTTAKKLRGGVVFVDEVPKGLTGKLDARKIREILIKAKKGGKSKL", "assay": "Counter Screen for Luciferase-based Assay Positives. [Related pubchem assays: 620, 618, 411 ]"}, "[6]": {"assay": "HEK293 cell cytotoxicity, dose response, cytotoxicity control, cherry-picks, set 5 (AID 1053117)", "format": "functional, cell-based"}, "[7]": {"assay": "Late stage assay provider results from the probe development effort to identify selective inhibitors of heat shock protein 90 (HSP90): Absorbance-based cell proliferation assay in SKBR3 cells.", "format": "functional", "details": "SK-BR-3"}, "HT-1080": {"system": "HT-1080", "assay": "cytotoxicity in HT1080 fibrosarcoma cells, cell-based, fluorescence readout (AID 620)", "format": "functional", "details": "Homo sapiens"}, "[8]": {"assay": "Late stage assay provider results from the probe development effort to identify selective inhibitors of heat shock protein 90 (HSP90): Absorbance-based cell proliferation assay in MCF7 cells.", "format": "functional"}, "[9]": {"assay": "inhibitors of fibronectin matrix deposition, dose response, AH1F cells, Alexa488-FN fluorescence, cherry-picks (AID 1035475)", "format": "functional, cell-based"}, "[10]": {"biological_target": "Lysosomal acid glucosylceramidase (Homo sapiens, UniProt P04062)", "sequence (P04062 whole entry)": "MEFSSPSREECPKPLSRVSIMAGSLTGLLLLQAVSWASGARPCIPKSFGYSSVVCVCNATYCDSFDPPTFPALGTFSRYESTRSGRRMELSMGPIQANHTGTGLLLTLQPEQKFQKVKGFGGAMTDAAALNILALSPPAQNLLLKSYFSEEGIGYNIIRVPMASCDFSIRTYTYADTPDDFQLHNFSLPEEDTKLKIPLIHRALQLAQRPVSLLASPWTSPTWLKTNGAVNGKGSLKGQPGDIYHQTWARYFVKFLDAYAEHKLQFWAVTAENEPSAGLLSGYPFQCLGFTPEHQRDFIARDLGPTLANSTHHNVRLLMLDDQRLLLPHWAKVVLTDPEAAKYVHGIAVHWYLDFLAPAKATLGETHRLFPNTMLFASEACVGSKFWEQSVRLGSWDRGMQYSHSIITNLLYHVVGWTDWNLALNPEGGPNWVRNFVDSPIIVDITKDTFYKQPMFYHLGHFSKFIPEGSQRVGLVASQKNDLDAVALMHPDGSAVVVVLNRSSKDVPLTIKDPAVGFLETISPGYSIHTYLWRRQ", "assay": "Dose response cell-based high throughput screening assay to identify enhancers of beta-glucosidase activity. [Related pubchem assays: 784 ]", "format": "functional"}, "Leucine aminopeptidase": {"biological_target": "T2, Leucine aminopeptidase (Plasmodium falciparum 3D7, UniProt Q8IL11)", "T2 sequence (Q8IL11 whole entry)": "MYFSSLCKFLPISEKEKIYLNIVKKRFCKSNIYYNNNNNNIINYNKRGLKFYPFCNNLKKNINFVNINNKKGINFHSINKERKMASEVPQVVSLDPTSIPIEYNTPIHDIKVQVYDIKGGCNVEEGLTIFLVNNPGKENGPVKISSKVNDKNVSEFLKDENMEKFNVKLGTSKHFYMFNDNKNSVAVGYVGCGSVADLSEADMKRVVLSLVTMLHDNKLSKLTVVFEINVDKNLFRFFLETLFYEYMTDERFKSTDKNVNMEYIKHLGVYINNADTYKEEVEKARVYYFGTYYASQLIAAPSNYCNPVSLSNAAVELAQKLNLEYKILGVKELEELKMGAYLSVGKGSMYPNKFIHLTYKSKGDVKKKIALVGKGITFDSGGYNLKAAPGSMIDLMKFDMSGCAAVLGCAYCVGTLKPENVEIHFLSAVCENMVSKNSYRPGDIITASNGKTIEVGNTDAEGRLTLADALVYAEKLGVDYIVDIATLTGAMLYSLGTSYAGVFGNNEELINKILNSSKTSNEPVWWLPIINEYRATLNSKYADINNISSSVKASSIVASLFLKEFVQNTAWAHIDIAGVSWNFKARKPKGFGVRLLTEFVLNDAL", "assay": "P. falciparum M17LAP inhibitors, primary screen, biochemical, fluorogenic H-Leu-NHMec substrate, 1536-well (AID 1619)", "format": "functional"}, "Estrogen receptor": {"biological_target": "T3, Estrogen receptor (Homo sapiens, UniProt P03372)", "T3 sequence (P03372 whole entry)": "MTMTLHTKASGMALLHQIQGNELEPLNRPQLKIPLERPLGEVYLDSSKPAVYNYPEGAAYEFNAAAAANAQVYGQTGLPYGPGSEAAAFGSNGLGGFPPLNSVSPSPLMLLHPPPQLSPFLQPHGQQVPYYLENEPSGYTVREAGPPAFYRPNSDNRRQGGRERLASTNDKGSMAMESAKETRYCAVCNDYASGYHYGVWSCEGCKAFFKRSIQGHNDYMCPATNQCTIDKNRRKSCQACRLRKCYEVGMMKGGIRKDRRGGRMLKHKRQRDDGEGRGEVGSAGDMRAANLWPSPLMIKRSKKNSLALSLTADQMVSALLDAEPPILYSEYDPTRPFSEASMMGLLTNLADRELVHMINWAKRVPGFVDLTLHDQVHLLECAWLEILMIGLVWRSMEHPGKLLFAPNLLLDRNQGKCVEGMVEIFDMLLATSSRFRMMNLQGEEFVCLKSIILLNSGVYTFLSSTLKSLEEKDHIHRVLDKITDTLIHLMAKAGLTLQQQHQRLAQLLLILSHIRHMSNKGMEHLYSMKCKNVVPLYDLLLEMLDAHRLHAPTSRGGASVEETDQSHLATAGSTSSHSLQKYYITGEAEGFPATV", "assay": "potentiators of ERα–SRC-1 coactivator binding, dose response, biochemical, TR-FRET, ERα LBD (AID 737)"}, "[11]": {"assay": "HIV-1 Env-mediated cell fusion inhibitors, dose response, CCR5-tropic Env (AID 2279)", "format": "functional"}, "[12]": {"assay": "NIH-3T3 fibroblast cytotoxicity, dose response, cytotoxicity control, cell-based, fluorescence, Alamar Blue, secondary assay (AID 2327);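 also: NIH-3T3 mouse fibroblasts cultured with fluconazole at 8 µg/mL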", "format": "functional"}, "Fatty acid synthase [13]": {"biological_target": "T4, Fatty acid synthase (Homo sapiens, UniProt P49327)", "T4 sequence (P49327 whole entry, the tested form may be a part)": "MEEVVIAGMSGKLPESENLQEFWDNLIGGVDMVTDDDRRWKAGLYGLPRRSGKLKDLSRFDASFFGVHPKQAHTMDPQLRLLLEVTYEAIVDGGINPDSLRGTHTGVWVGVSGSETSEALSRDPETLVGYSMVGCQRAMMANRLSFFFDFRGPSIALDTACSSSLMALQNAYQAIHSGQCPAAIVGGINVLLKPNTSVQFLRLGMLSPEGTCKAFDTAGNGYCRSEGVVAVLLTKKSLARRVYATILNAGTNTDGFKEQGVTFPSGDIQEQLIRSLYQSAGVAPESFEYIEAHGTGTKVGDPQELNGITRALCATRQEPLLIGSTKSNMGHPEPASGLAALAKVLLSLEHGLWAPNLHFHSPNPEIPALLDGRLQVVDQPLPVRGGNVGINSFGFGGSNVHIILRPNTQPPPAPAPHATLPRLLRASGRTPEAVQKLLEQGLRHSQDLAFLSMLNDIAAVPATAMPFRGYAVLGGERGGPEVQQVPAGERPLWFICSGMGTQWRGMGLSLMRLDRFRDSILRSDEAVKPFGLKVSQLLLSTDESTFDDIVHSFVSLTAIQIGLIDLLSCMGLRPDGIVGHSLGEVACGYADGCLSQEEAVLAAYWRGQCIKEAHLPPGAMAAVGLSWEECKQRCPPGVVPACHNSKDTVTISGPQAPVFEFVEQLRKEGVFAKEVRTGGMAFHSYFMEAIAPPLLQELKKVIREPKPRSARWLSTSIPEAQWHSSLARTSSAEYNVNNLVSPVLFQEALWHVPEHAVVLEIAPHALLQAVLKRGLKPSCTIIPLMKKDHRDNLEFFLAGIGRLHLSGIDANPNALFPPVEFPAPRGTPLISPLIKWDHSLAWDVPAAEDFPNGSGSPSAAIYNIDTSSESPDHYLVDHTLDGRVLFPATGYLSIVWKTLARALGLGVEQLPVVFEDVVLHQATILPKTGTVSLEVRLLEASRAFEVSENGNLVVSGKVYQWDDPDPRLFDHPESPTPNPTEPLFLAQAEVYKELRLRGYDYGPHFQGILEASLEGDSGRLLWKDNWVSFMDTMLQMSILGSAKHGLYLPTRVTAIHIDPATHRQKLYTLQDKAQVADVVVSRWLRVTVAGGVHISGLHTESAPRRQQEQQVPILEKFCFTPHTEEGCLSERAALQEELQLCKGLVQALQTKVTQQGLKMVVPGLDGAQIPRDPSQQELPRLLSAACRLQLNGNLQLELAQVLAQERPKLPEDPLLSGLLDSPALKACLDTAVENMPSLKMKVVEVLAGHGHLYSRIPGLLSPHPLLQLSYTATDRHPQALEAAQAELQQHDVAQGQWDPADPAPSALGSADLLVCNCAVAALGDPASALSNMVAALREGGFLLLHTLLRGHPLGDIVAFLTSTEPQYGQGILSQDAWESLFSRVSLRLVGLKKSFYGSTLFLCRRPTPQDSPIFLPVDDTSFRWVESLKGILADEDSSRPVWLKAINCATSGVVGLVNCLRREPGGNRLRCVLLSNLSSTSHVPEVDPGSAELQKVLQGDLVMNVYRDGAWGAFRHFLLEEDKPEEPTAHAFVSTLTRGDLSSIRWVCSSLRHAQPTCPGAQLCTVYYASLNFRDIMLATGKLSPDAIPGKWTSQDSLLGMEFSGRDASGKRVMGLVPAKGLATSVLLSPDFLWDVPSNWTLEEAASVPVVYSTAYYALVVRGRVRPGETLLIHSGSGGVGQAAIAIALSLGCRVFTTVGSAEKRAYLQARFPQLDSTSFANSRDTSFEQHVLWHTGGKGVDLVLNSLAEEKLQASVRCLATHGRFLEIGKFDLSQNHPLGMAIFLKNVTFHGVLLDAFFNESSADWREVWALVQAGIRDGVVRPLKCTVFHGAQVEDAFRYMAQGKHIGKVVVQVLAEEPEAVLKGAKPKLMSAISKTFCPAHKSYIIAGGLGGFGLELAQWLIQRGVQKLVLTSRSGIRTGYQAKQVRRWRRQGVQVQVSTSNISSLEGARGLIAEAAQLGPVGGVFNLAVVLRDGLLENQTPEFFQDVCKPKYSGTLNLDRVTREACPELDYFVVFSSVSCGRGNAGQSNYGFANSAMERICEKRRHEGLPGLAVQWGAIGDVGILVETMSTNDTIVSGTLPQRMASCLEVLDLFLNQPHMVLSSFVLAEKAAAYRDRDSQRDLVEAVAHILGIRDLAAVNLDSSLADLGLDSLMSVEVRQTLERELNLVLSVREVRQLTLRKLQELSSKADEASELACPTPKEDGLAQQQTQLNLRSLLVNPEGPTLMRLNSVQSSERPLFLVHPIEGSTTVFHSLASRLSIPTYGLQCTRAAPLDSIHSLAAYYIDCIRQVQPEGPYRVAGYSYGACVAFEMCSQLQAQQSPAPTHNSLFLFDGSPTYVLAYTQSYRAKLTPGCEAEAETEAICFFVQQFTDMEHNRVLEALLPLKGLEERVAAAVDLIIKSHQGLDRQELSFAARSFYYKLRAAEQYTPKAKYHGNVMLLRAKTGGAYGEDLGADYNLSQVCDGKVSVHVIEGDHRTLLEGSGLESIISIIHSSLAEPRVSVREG", "assay": "FAS thioesterase domain inhibitors, dose response, biochemical, kinetic fluorescence intensity (AID 624326);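 also: rate of fluorescence rise from hydrolysis of a fluorogenic O-methyl fluorescein ester substrate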", "format": "functional"}, "[14]": {"assay": "C. albicans growth with fluconazole, confirmation, fluorescence, retest (AID 2467)", "format": "functional, cell-based"}, "[15]": {"assay": "inhibitors of Bluetongue virus cytopathic effect, confirmation, arbovirus, BSR cells (AID 1250);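 also: protection from viral cytopathic effect measured as cell viability by ATP luminescence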", "format": "functional"}, "Fatty acid synthase [16]": {"biological_target": "T4, Fatty acid synthase", "assay": "FAS thioesterase domain inhibitors, dose response, biochemical, endpoint fluorescence intensity, uHTS hits (AID 624327);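 also: fluorescence from hydrolysis of an O-methyl fluorescein acyl ester substrate by the enzyme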", "format": "functional"}, "Aminopeptidase N": {"biological_target": "Aminopeptidase N (Plasmodium falciparum FcB1/Columbia, UniProt O96935)", "sequence (O96935 whole entry)": "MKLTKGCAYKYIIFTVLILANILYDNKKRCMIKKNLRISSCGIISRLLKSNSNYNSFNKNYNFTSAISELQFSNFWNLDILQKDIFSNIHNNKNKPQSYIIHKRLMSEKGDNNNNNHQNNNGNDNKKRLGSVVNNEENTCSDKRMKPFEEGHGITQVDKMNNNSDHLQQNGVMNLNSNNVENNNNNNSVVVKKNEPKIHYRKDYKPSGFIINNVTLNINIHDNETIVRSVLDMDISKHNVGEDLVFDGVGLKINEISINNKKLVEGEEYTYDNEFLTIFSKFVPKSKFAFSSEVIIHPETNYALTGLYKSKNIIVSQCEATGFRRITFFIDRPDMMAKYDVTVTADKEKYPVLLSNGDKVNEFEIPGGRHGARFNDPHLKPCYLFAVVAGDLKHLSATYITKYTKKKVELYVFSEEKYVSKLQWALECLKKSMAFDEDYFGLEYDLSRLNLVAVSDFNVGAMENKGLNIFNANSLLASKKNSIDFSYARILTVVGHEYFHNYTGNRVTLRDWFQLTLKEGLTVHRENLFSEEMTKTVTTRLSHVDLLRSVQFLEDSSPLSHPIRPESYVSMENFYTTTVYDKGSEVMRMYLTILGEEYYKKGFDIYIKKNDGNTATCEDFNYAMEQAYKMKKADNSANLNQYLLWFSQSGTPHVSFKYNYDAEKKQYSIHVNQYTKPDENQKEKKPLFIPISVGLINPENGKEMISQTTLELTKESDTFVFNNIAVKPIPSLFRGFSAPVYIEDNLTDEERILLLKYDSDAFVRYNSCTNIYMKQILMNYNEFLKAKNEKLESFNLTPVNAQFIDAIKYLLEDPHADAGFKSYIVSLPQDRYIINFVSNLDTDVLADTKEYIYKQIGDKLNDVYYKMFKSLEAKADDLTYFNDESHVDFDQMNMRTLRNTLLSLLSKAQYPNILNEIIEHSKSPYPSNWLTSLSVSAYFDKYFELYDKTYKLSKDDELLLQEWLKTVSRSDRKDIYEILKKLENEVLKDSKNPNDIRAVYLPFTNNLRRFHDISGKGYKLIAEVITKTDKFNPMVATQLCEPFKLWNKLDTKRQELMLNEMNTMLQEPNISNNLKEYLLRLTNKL", "assay": "P. falciparum M1AAP inhibitors, biochemical, fluorogenic H-Leu-NHMec substrate, 1536-well (AID 1445)", "set-up": "species or system Plasmodium falciparum 3D7, 3D7"}}, "note": "Activity calls are given as the source filed them.", "data": [{"smiles": "Cc1cccc(C)c1OCC(O)Cn1c2ccccc2c2ccccc21", "note": "(stereo unspecified)", "values": [{"measurement": "EC50", "setting": "[1]", "value": "6.75 µM (active)"}, {"measurement": "IC50", "setting": "[2]", "value": "> 69.5 µM (inactive)"}, {"measurement": "EC50", "setting": "Streptococcus [3]", "value": "7.9 µM (active)"}, {"measurement": "EC50", "setting": "Streptococcus [4]", "value": "9.21 µM (active)"}, {"measurement": "EC50", "setting": "Streptokinase A", "value": "3.98 µM (active)"}]}, {"smiles": "CC(C)CNC(=O)c1coc(=O)c(Br)c1", "values": [{"measurement": "EC50", "setting": "[5]", "value": "1.83 µM (active)"}, {"measurement": "AC50", "setting": "[6]", "value": "> 52 µM (inactive)"}, {"measurement": "IC50", "setting": "[7]", "value": "22 µM (inactive)"}, {"measurement": "EC50", "setting": "HT-1080", "value": "20.4 µM (active)"}, {"measurement": "IC50", "setting": "[8]", "value": "7.5 µM (active)"}, {"measurement": "AC50", "setting": "[9]", "value": "23.9 µM (active)"}]}, {"smiles": "O=C(CN1C(=O)c2ccccc2S1(=O)=O)NCCSC1CCCCC1", "values": [{"measurement": "EC50", "setting": "[10]", "value": "> 10 µM (not active)"}, {"measurement": "IC50", "setting": "Leucine aminopeptidase", "value": "9.32 µM (active)"}]}, {"smiles": "C[C@]12CC[C@@H]3c4ccc(O)cc4C(=O)C[C@H]3[C@@H]1CC[C@@H]2O", "values": [{"measurement": "EC50", "setting": "Estrogen receptor", "value": "12.5 µM (active)"}]}, {"smiles": "COc1cc(/C=C(\\C#N)c2nc3ccccc3s2)cc([N+](=O)[O-])c1O", "values": [{"measurement": "IC50", "setting": "[11]", "value": "> 50 µM (active)"}, {"measurement": "EC50", "setting": "[12]", "value": "> 150 µM (inactive)"}, {"measurement": "IC50", "setting": "Fatty acid synthase [13]", "value": "10 µM (active)"}, {"measurement": "EC50", "setting": "[14]", "value": "> 38 µM (not active)"}, {"measurement": "IC50", "setting": "[15]", "value": "33.7 µM (active)"}, {"measurement": "IC50", "setting": "Fatty acid synthase [16]", "value": "12.4 µM (active)"}, {"measurement": "IC50", "setting": "Aminopeptidase N", "value": "11 µM (active)"}]}]}
